From patent US20170314074A1, “LPA-ASSOCIATED PROTEIN AND RNA EXPRESSION” (Intermune, Inc., priority 2014, published 2017)

What was measured:
[1] = test system: fibroblasts and/or epithelial cells; assay: mRNA expression after LPA induction, Affymetrix Human Gene ST arrays, fibroblasts and/or epithelial cells (Table 3); assay type: cell-based
Experimental: (§1) Changes in gene expression after 3 hours of LPA induction were profiled on Affymetrix Human Gene ST 2.0 microarrays; differentially expressed genes identified by ANOVA with FDR <0.05 and fold-change >1.2. Process networks associated with differentially expressed genes were defined using MetaCore. Changes in secreted protein expression after 24 hours of LPA induction were profiled on an aptamer-based proteomic platform (1129 proteins); differentially expressed proteins identified by t-test.
(§2) Total RNA was isolated from normal human lung fibroblasts, human bronchial epithelial cells, and human pulmonary alveolar epithelial cells treated for […] with LPA and/or LPAR1 inhibitor. Each treatment condition was assayed in triplicate. Samples were profiled on Affymetrix Human Gene ST Arrays 1.0 and/or 2.0 after preparation using the Ambion WT Expression Kit according to manufacturers' instructions.
Data normalization and all subsequent analyses were performed in Partek Genomics Suite (Partek, St. Louis, Mo.). Data were normalized using the Robust Multi-array Average (RMA) algorithm. Differentially expressed genes were identified by ANOVA with correction for multiple comparisons with p-value with FDR<0.05. A fold-change cut-off was not strictly applied, although the majority of the differentially expressed genes identified have fold-changes greater than 1.2. […]

[2] = test system: normal human lung fibroblasts; assay: mRNA expression after LPA induction, Affymetrix Human Gene ST arrays, fibroblasts (Table 4A); assay type: cell-based; settings: fibroblasts; 1 μM LPA; average of 3 experiments
Experimental: as §1, §2
Data normalization and all subsequent analyses were performed in Partek Genomics Suite (Partek, St. Louis, Mo.). Data were normalized using the Robust Multi-array Average (RMA) algorithm. Differentially expressed genes were identified by ANOVA with correction for multiple comparisons with p-value with FDR<0.05. A fold-change cut-off was not strictly applied, although the majority of the differentially expressed genes identified have fold-changes greater than 1.2. Genes were included if they were statistically significant for (1) LPA-induction and (2) response to treatment with an LPAR1 inhibitor.
In Tables 1-5 The differentially expressed secreted proteins set forth in Tables 1, 2, and 5 and the differentially expressed mRNAs set forth in Table 3 and 4 were identified by visual inspection of individual dot-plots.
For the gene and protein expression analysis primary fibroblasts (NHLF product #CC-2512 from Lonza group LTD) and primary epithelial cells (NHBE Product #CC-2540 from Lonza; HPAEpiC Product #3200 from Sciencell (USA, California)) were cultured as recommended by the manufacturer, except they were cultured on collagen coated plates. As part of the induction protocol cells were starved overnight in low (0.2 or 0.1% serum) or no serum (0%), prior to stimulation with LPA.

## lysophosphatidic acid [LPA]
[1]
  changes in gene expression induced by LPA: induced significant changes in gene expression
[2]
  Effect of 1 μM LPA (fold-change), BIRC3 mRNA: 3.17 fold-change
  Effect of 1 μM LPA (fold-change), CHIC2 mRNA: 2.36 fold-change
  Effect of 1 μM LPA (fold-change), CNST mRNA: 2.26 fold-change
  Effect of 1 μM LPA (fold-change), CTGF mRNA: 4.71 fold-change
  Effect of 1 μM LPA (fold-change), CYR61 mRNA: 6.52 fold-change
  Effect of 1 μM LPA (fold-change), DKK1 mRNA: 6.36 fold-change
  Effect of 1 μM LPA (fold-change), DUSP1 mRNA: 2.76 fold-change
  Effect of 1 μM LPA (fold-change), EFNB2 mRNA: 2.61 fold-change
  Effect of 1 μM LPA (fold-change), GPR37 mRNA: 2.80 fold-change
  Effect of 1 μM LPA (fold-change), HAS2 mRNA: 2.61 fold-change
  Effect of 1 μM LPA (fold-change), HBEGF mRNA: 5.11 fold-change
  Effect of 1 μM LPA (fold-change), IER3 mRNA: 2.94 fold-change
  Effect of 1 μM LPA (fold-change), IL6 mRNA: 4.19 fold-change
  Effect of 1 μM LPA (fold-change), KPRP mRNA: 4.31 fold-change
  Effect of 1 μM LPA (fold-change), KRTAP1-5 mRNA: 6.49 fold-change
  Effect of 1 μM LPA (fold-change), KRTAP4-12 mRNA: 3.23 fold-change
  Effect of 1 μM LPA (fold-change), LIF mRNA: 5.15 fold-change
  Effect of 1 μM LPA (fold-change), MCP-1/CCL2 mRNA: 5.58 fold-change
  Effect of 1 μM LPA (fold-change), MIR218-1: 3.07 fold-change
  Effect of 1 μM LPA (fold-change), PAI-1 mRNA: 2.28 fold-change
  Effect of 1 μM LPA (fold-change), PDCD1LG2 mRNA: 2.52 fold-change
  Effect of 1 μM LPA (fold-change), PTX3 mRNA: 2.34 fold-change
  Effect of 1 μM LPA (fold-change), SERPINB2 mRNA: 2.44 fold-change
  Effect of 1 μM LPA (fold-change), TNFAIP3 mRNA: 3.44 fold-change
  Effect of 1 μM LPA (fold-change), TXNIP mRNA: −3.79 fold-change
  Effect of 1 μM LPA (fold-change), UGCG mRNA: 2.41 fold-change
  Effect of 1 μM LPA (fold-change), VGLL3 mRNA: 2.96 fold-change
